Assay results as given in US8389500B2, “Fused heterocyclic compounds as ion channel modulators” (Gilead Sciences, Inc., priority 2008, dated 2013).

Target: T1, wild-type human cardiac sodium channel, hNav1.5 (late sodium current) (Homo sapiens, UniProt Q14524)
T1 construct: host or cells: HEK293
Experiment: Late INa screening assay (PatchXpress whole cell patch clamp)
Assay type: cell-based
Conditions: HEK293 hNav1.5, late INa generated with 10 μM Tefluthrin (some experiments 50 nM ATX II); for inhibition at 10 µM: 10 μM test compound, read-out: Late INa % blk (10 μM test cmpd); for inhibition at 1 µM: 1 μM test compound, read-out: Late INa % blk (1 μM test cmpd)
Description: The late sodium current (Late INa) and peak sodium current (Peak INa) assays are performed on an automated electrophysiology platform, PatchXpress 7000A (MDS Analytical Technologies, Sunnyvale, Calif.), which uses the whole cell patch clamp technique to measure currents through the cell membrane of up to 16 cells at a time. The assay uses an HEK293 (human embryonic kidney) cell line heterologously expressing the wild-type human cardiac sodium channel, hNav1.5, purchased from Millipore (Billerica, Mass.). No beta subunits were coexpressed with the Na channel alpha subunit. Cells are maintained with standard tissue culture procedures and stable channel expression is maintained with 400 μg/ml Geneticin in the culture medium. […] Experiments are carried out at 24-27° C.
For both the Late INa and Peak INa assays, series resistance compensation is set to 50% and whole-cell compensation is performed automatically. […] Currents through open sodium channels are automatically recorded and stored in the DataXpress2 database (MDS Analytical Technologies, Sunnyvale, Calif.). Analysis is performed using DataXpress2 analysis software and data are compiled in Excel.
Compound stocks are routinely made in glass vials to 10 mM in dimethyl sulfoxide (DMSO). In some cases, when compounds are not soluble in DMSO, they are made in 100% ethanol. Stocks are sonicated as necessary. The extracellular solution for screening Late INa is composed of: 140 mM NaCl, 4 mM KCl, 1.8 mM CaCl2, 0.75 mM MgCl2, and 5 mM HEPES with pH adjusted to 7.4 using NaOH. The extracellular solution for screening Peak INa is composed of: 20 mM NaCl, 120 mM N-methyl-D glucamine, 4 mM KCl, 1.8 mM CaCl2, 0.75 mM MgCl2, and 5 mM HEPES with pH adjusted to 7.4 using HCl. The intracellular solution used to perfuse the inside of the cells for both the Late INa and Peak INa assays contains: 120 mM CsF, 20 mM CsCl, 5 mM EGTA, 5 mM HEPES and pH adjusted to 7.4 with CsOH. […] The 0Na extracellular solution used at the end of each experiment for the Late INa and Peak INa assays to measure baseline current contains: 140 mM N-methyl-D-glucamine; 4 mM KCl; 1.8 mM CaCl2; 0.75 mM MgCl2; 5 mM HEPES and pH was adjusted to 7.4 with HCl.
For the Late INa assay, sodium channels are activated every 10 seconds (0.1 Hz) by depolarizing the cell membrane to −20 mV for 250 milliseconds (ms) from a holding potential of −120 mV. In response to a −20 mV voltage step, typical Nav1.5 sodium currents activate rapidly to a peak negative current and then inactivate nearly completely within […].
All compounds are tested to determine their activity in blocking the late sodium current. Late INa current is generated by adding 10 μM Tefluthrin (pyrethroid) to the extracellular solution while recording Na currents For some experiments, 50 nM ATX II (sea anemone toxin), another late Na activator, was used to generate the late component. […] After establishing the whole cell recording configuration, late INa activators are added to each well 4 times over a 16-17 minute period so that the late component of the Na current reaches a stable value. […] Measurements are made at the end of exposure to the third compound addition and values are normalized to the current level when all Na^+ is removed from the extracellular solution after two additions of ONa-ECF. Results are reported as percent block of late INa

T1 sequence (Q14524 whole entry): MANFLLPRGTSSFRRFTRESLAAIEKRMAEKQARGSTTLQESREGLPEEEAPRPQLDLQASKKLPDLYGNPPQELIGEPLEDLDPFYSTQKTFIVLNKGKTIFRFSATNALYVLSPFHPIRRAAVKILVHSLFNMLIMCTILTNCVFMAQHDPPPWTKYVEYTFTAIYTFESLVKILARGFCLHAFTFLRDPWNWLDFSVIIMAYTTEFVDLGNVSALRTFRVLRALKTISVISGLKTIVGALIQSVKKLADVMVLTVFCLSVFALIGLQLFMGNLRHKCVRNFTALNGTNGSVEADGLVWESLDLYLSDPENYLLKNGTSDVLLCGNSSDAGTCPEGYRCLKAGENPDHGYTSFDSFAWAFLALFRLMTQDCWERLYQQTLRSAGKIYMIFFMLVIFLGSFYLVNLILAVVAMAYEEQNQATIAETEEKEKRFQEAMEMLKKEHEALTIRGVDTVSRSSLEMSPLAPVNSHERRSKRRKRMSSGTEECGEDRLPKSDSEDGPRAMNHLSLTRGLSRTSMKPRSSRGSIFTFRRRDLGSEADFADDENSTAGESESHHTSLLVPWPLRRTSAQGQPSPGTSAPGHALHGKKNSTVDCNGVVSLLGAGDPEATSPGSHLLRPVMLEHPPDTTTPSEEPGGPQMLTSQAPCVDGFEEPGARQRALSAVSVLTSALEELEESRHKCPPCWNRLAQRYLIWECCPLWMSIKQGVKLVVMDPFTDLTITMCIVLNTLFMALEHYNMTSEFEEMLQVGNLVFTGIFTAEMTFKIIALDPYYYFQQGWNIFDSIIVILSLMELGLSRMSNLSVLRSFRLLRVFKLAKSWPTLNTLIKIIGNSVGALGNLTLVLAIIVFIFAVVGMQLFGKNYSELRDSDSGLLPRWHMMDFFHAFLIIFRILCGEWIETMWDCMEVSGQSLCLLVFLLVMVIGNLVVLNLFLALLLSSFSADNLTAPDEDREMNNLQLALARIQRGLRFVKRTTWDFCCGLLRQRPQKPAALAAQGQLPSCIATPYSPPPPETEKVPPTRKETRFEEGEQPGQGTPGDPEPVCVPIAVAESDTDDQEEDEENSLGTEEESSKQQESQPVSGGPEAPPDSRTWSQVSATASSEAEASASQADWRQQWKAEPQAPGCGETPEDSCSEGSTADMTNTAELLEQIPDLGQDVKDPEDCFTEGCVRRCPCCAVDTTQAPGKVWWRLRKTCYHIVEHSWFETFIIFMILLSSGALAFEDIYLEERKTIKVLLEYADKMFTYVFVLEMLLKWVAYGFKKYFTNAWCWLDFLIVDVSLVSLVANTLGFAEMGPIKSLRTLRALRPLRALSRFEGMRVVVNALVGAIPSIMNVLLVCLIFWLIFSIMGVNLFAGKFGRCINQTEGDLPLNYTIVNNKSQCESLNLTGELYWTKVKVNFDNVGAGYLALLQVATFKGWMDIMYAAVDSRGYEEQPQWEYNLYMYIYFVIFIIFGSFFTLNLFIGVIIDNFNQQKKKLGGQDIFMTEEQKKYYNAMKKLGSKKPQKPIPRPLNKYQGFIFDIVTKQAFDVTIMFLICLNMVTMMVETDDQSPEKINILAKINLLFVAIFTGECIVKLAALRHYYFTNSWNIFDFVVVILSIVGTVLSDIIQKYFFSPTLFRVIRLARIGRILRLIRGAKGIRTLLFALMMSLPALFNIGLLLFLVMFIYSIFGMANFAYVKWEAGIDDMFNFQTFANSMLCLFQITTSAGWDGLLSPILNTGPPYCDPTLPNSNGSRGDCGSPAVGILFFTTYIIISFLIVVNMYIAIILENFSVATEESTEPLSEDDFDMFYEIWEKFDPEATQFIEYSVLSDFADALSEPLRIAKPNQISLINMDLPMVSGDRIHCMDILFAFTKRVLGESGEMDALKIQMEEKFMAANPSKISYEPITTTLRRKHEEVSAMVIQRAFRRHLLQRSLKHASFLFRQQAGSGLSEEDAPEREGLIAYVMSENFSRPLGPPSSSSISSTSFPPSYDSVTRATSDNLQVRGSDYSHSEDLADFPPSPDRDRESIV

| Compound | inhibition at 10 µM | inhibition at 1 µM |
| --- | --- | --- |
| CCCS(=O)(=O)Nc1ccc(-c2ccc(Cl)c(F)c2)c(Cl)c1 [PT-027, N-(2,4′-dichloro-3′-fluorobiphenyl-4-yl)propane-1-sulfonamide] | 55.5% |  |
| CCOC(=O)CN(c1ccc(-c2cccc(OC(F)(F)F)c2)c(Cl)c1)S(C)(=O)=O [PT-028, ethyl N-[2-chloro-3′-(trifluoromethoxy)biphenyl-4-yl]-N-(methylsulfonyl)glycinate] | 62.1% |  |
| CS(=O)(=O)N(CC(=O)O)c1ccc(-c2cccc(OC(F)(F)F)c2)c(Cl)c1 [PT-029, N-[2-chloro-3′-(trifluoromethoxy)biphenyl-4-yl]-N-(methylsulfonyl)glycine] | 28.4% |  |
| CS(=O)(=O)Nc1ccc(-c2ccc(F)c(Cl)c2)cc1Cl [PT-030, N-(3,3′-dichloro-4′-fluorobiphenyl-4-yl)methanesulfonamide] | 41.4% |  |
| COc1cc(NS(C)(=O)=O)ccc1-c1ccc(F)cc1 [PT-031, N-(4′-fluoro-2-methoxybiphenyl-4-yl)methanesulfonamide] | 17.1% |  |
| COc1cc(NS(C)(=O)=O)ccc1-c1ccc(Cl)cc1 [PT-032, N-(4′-chloro-2-methoxybiphenyl-4-yl)methanesulfonamide] | 42% |  |
| CS(=O)(=O)Nc1ccc(-c2ccc(Oc3ccccc3)cc2)cc1 [PT-033, N-(4′-phenoxybiphenyl-4-yl)methanesulfonamide] | 15.1% |  |
| CS(=O)(=O)Nc1ccc(-c2ccccc2F)c(Cl)c1 [PT-035, N-(2-chloro-2′-fluorobiphenyl-4-yl)methanesulfonamide] | 48.2% |  |
| CS(=O)(=O)Nc1ccc(-c2cccc(C(F)(F)F)c2)c(Cl)c1 [PT-036, N-[2-chloro-3′-(trifluoromethyl)biphenyl-4-yl]methanesulfonamide] | 64.1% |  |
| CS(=O)(=O)Nc1ccc(-c2ccc(F)cc2)c(Cl)c1 [PT-037, N-(2-chloro-4′-fluorobiphenyl-4-yl)methanesulfonamide] | 40.4% |  |
| CS(=O)(=O)Nc1ccc(-c2ccc(F)c(Cl)c2)c(Cl)c1 [PT-038, N-(2,3′-dichloro-4′-fluorobiphenyl-4-yl)methanesulfonamide] | 71% | 28.8% |
| Cc1cc(NS(C)(=O)=O)ccc1-c1ccc(F)c(Cl)c1 [PT-039, N-(3′-chloro-4′-fluoro-2-methylbiphenyl-4-yl)methanesulfonamide] | 62.9% |  |
| Cc1cc(-c2ccc(Oc3ccccc3)cc2)c(Cl)cc1NS(C)(=O)=O [PT-041, N-(2-chloro-5-methyl-4′-phenoxybiphenyl-4-yl)methanesulfonamide] | 59.3% | 45% |
| Cc1cc(-c2ccc(Oc3ccccc3)cc2)ccc1NS(C)(=O)=O [PT-042, N-(3-methyl-4′-phenoxybiphenyl-4-yl)methanesulfonamide] | 25.5% |  |
| CS(=O)(=O)Nc1ccc(-c2ccc(Cl)cc2)c(Cl)c1 [PT-043, N-(2,4′-dichlorobiphenyl-4-yl)methanesulfonamide] | 71.5% | 17.4% |
| COC(=O)c1ccc(-c2ccc(NS(C)(=O)=O)cc2Cl)cc1 [PT-044, methyl 2′-chloro-4′-[(methylsulfonyl)amino]biphenyl-4-carboxylate] | 50.6% |  |
| CS(=O)(=O)Nc1ccc(-c2ccc(F)cc2Cl)c(Cl)c1 [PT-045, N-(2,2′-dichloro-4′-fluorobiphenyl-4-yl)methanesulfonamide] | 57.5% |  |
| O=S(=O)(Nc1ccc(-c2ccc(Oc3ccccc3)cc2)c(Cl)c1)C1CC1 [PT-048, N-(2-chloro-4′-phenoxybiphenyl-4-yl)cyclopropanesulfonamide] | 37.9% |  |

| Compound | inhibition at 10 µM | inhibition at 1 µM |
| --- | --- | --- |
| COc1ccc(-c2ccc(NS(C)(=O)=O)cc2Cl)cc1 [PT-051, N-(2-chloro-4′-methoxybiphenyl-4-yl)methanesulfonamide] | 27% |  |
| CS(=O)(=O)Nc1ccc(-c2cccc(F)c2)c(Cl)c1 [PT-052, N-(2-chloro-3′-fluorobiphenyl-4-yl)methanesulfonamide] | 50.1% |  |
| CS(=O)(=O)Nc1ccc(-c2cccc(Cl)c2)c(Cl)c1 [PT-053, N-(2,3′-dichlorobiphenyl-4-yl)methanesulfonamide] | 72.2% | 29.9% |
| CS(=O)(=O)Nc1ccc(-c2cccc([N+](=O)[O-])c2)c(Cl)c1 [PT-054, N-(2-chloro-3′-nitrobiphenyl-4-yl)methanesulfonamide] | 41.3% |  |
| Cc1cc(NS(C)(=O)=O)ccc1-c1ccc(F)cc1 [PT-056, N-(4′-fluoro-2-methylbiphenyl-4-yl)methanesulfonamide] | 40.8% |  |
| Cc1cc(NS(C)(=O)=O)ccc1-c1ccc(F)c(F)c1 [PT-057, N-(3′,4′-difluoro-2-methylbiphenyl-4-yl)methanesulfonamide] | 35.9% |  |
| CS(=O)(=O)Nc1ccc(-c2ccc(Cl)c(C(F)(F)F)c2)c(Cl)c1 [PT-058, N-[2,4′-dichloro-3′-(trifluoromethyl)biphenyl-4-yl]methanesulfonamide] | 78.5% | 42.5% |
| CS(=O)(=O)Nc1ccc(-c2ccc(Cl)c(F)c2)c(F)c1 [PT-059, N-(4′-chloro-2,3′-difluorobiphenyl-4-yl)methanesulfonamide] | 41.3% |  |
| CS(=O)(=O)N(CCN1CCOCC1)c1ccc(-c2ccc(Cl)c(F)c2)c(Cl)c1 [PT-061, N-(2,4′-dichloro-3′-fluorobiphenyl-4-yl)-N-[2-(morpholin-4-yl)ethyl]methanesulfonamide] | 20.6% |  |
| CS(=O)(=O)N(CCN1CCCCC1)c1ccc(-c2ccc(Cl)c(F)c2)c(Cl)c1 [PT-062, N-(2,4′-dichloro-3′-fluorobiphenyl-4-yl)-N-[2-(piperidin-1-yl)ethyl]methanesulfonamide] | 74.8% | 25.7% |
| CN1CCN(CCN(c2ccc(-c3ccc(Cl)c(F)c3)c(Cl)c2)S(C)(=O)=O)CC1 [PT-063, N-(2,4′-dichloro-3′-fluorobiphenyl-4-yl)-N-[2-(4-methylpiperazin-1-yl)ethyl]methanesulfonamide] | 48.8% |  |
| CS(=O)(=O)N(Cc1nn[nH]n1)c1ccc(-c2ccc(Cl)c(F)c2)c(Cl)c1 [PT-064, N-(2,4′-dichloro-3′-fluorobiphenyl-4-yl)-N-(2H-tetrazol-5-ylmethyl)methanesulfonamide] | 30.5% |  |
| CS(=O)(=O)Nc1ccc(-c2cc(C(F)(F)F)cc(C(F)(F)F)c2)c(Cl)c1 [PT-065, N-[2-chloro-3′,5′-bis(trifluoromethyl)biphenyl-4-yl]methanesulfonamide] | 85.6% | 27.8% |
| CS(=O)(=O)N(c1ccc(-c2ccc(Oc3ccccc3)cc2)cc1Cl)C1CCC[C@@H]1O (stereo partly drawn) [PT-066, N-(3-chloro-4′-phenoxybiphenyl-4-yl)-N-[(2S)-2-hydroxycyclopentyl]methanesulfonamide] | 33.8% |  |
| CS(=O)(=O)Nc1ccc(-c2cccc(OC(F)(F)F)c2)c(F)c1 [PT-067, N-[2-fluoro-3′-(trifluoromethoxy)biphenyl-4-yl]methanesulfonamide] | 70.7% | 13.8% |
| CS(=O)(=O)Nc1ccc(-c2cc(F)cc(F)c2)c(Cl)c1 [PT-068, N-(2-chloro-3′,5′-difluorobiphenyl-4-yl)methanesulfonamide] | 42.2% |  |
| CS(=O)(=O)Nc1ccc(-c2ccc(F)c(C(F)(F)F)c2)c(Cl)c1 [PT-069, N-[2-chloro-4′-fluoro-3′-(trifluoromethyl)biphenyl-4-yl]methanesulfonamide] | 63% |  |
